Measurements: patent US20230190754A1, “Therapeutic combinations for the treatment of Progressive Fibrosing interstitial lung diseases” (Boehringer Ingelheim International GmbH, priority 2021, published 2023)
“And” between values parts separate entries of the source, which are not always exact repeats. Equal values may be shown once.

Tests used:
human lung fibroblasts = settings: combination with nintedanib; cited from earlier work
IPF patients [1] = assay: Phase II clinical trial in IPF patients: completion / premature discontinuation of observation and treatment period; format: in vivo, human; settings: 18 mg b.i.d.
Experimental: The participants were divided into 2 groups by chance (the “active agent group” and the “placebo group”). […] One 12 mg placebo tablet and one 6 mg placebo tablet (both containing no active ingredient, see Table 1) was administered orally to the patients of the second group twice daily (b.i.d.).
The “active agent group” and the “placebo group” were further distributed to two different groups regarding background medication: the “AF-group” (“antifibrotic background medication group”) and the “Non-AF-group” (“no antifibrotic background medication group”). […] The combination of both nintedanib and pirfenidone as background medication was not allowed in the “AF-group”.
The trial was a randomised, double-blind, placebo-controlled parallel group study.

PDE4 subtypes, A-D = settings: cited from earlier work
IPF patients [2] = assay: Phase II clinical trial in IPF patients: change from baseline in Forced Vital Capacity (FVC) over 12 weeks (MMRM); format: in vivo, human; settings: 18 mg b.i.d.
[3] = AF-group (antifibrotic background)
[4] = AF-group (antifibrotic background), listed as Comp. of Form. III
[5] = AF-group (antifibrotic background), listed as active agent
[6] = AF-group, nintedanib background
[7] = AF-group, pirfenidone background
[8] = pooled background therapy (Non-AF+AF)

Structure (SMILES): [O-][S@+]1CCc2nc(N3CCC(c4ncc(Cl)cn4)CC3)nc(NC3(CO)CCC3)c21 [Comp. of form. III]
- Effect on fibroblast proliferation (in words) (human lung fibroblasts): synergistic overadditive effect
- Not completed planned treatment period (premature discontinuation), patients % (IPF patients [1]; [3]): 20.4%
- Not completed planned treatment period (premature discontinuation), patients N (IPF patients [1]; [3]): 10
- Observation period not completed: Death, patients % (IPF patients [1]; [3]): 2.0%
- Observation period not completed: Death, patients N (IPF patients [1]; [3]): 1
- Treatment period not completed: Adverse Event, patients % (IPF patients [1]; [3]): 20.4%
- Treatment period not completed: Adverse Event, patients N (IPF patients [1]; [3]): 10
- Not completed planned treatment period (premature discontinuation), patients % (IPF patients [1]; Non-AF-group): 10.4%
- Not completed planned treatment period (premature discontinuation), patients N (IPF patients [1]; Non-AF-group): 5
- Observation period not completed: Death, patients % (IPF patients [1]; Non-AF-group): 2.1%
- Observation period not completed: Death, patients N (IPF patients [1]; Non-AF-group): 1
- Treatment period not completed: Adverse Event, patients % (IPF patients [1]; Non-AF-group): 6.3%
- Treatment period not completed: Adverse Event, patients N (IPF patients [1]; Non-AF-group): 3
- Preferential enzymatic inhibition among the PDE4 subtypes (in words) (PDE4 subtypes, A-D): inhibit preferentially the PDE4 B subtype
- Adjusted mean change from baseline in FVC to week 12 (MMRM) (IPF patients [2]; [4]): 2.72 mL
- Adjusted mean difference vs. Placebo in change from baseline in FVC to week 12 (MMRM) (IPF patients [2]; [4]): 80.4 mL and 80.42 mL
- Adjusted mean change from baseline in FVC to week 12 (MMRM) (IPF patients [2]; [5]): +2.72 ml
- Adjusted mean difference vs. Placebo in change from baseline in FVC to week 12 (MMRM) (IPF patients [2]; [5]): 80.42 mL
- Adjusted mean change from baseline in FVC to week 12 (MMRM) (IPF patients [2]; [6]): 23.41 mL
- Adjusted mean difference vs. Placebo in change from baseline in FVC to week 12 (MMRM) (IPF patients [2]; [6]): 105.43 mL
- Week 12 Mean FVC (IPF patients [2]; [6]): 2787.37 mL
- Adjusted mean change from baseline in FVC to week 12 (MMRM) (IPF patients [2]; AF-group, nintedanib background, listed as PDE4-inhibitor of formula III): +23.41 ml
- Adjusted mean change from baseline in FVC to week 12 (MMRM) (IPF patients [2]; [7]): -18.76 mL
- Adjusted mean difference vs. Placebo in change from baseline in FVC to week 12 (MMRM) (IPF patients [2]; [7]): 61.30 mL
- Week 12 Mean FVC (IPF patients [2]; [7]): 2879.35 mL
- Adjusted mean change from baseline in FVC to week 12 (MMRM) (IPF patients [2]; AF-group, pirfenidone background, listed as PDE4-inhibitor of formula III): -18.67 mL
- Adjusted mean change from baseline in FVC to week 12 (MMRM) (IPF patients [2]; Non-AF-group): 6.10 mL
- Adjusted mean difference vs. Placebo in change from baseline in FVC to week 12 (MMRM) (IPF patients [2]; Non-AF-group): 101.7 mL and 101.72 mL
- Adjusted mean difference vs. Placebo in change from baseline in FVC to week 12 (MMRM) (IPF patients [2]; Non-AF-group, listed as PDE4-inhibitor of formula III): 101.72 mL
- Adjusted mean difference vs. Placebo in change from baseline in FVC to week 12 (MMRM) (IPF patients [2]; Non-AF-group, listed as active agent): 101.72 mL
- Adjusted mean change from baseline in FVC to week 12 (MMRM) (IPF patients [2]; [8]): 4.59 mL
- Adjusted mean difference vs. Placebo in change from baseline in FVC to week 12 (MMRM) (IPF patients [2]; [8]): 88.38 mL
- Adjusted mean change from baseline in FVC to week 12 (MMRM) (IPF patients [2]; pooled background therapy (Non-AF+AF), listed as active agent): -4.59 mL
